The values below are quoted from earlier work in patent US20200397756A1, “A STABLE PHARMACEUTICAL COMPOSITION OF POORLY SOLUBLE NONSTEROIDAL ANTIANDROGENS” (KASHIV BIOSCIENCES, LLC, priority 2018, published 2020).

For data set [1] the following is noted: water between pH 1 to 11.
Experiment in data set [2]: not given
The source holds these as a separate data set.

On to `CNC(=O)c1ccc(N2C(=S)N(c3ccc(C#N)c(C(F)(F)F)c3)C(=O)C2(C)C)cc1F` [Enzalutamide, 4-{3-[4-cyano-3-(trifluoromethyl)phenyl]-5,5-dimethyl-4-oxo-2-sulfanylideneimidazolidin-1-yl}-2-fluoro-N-methylbenzamide], for which the “solubility in absolute ethanol” value is recorded as “sparingly soluble”. Moreover, the solubility in water result in data set [1] is “practically insoluble”. The permeability entry in data set [2] was “high”.
In the case of `CNC(=O)c1ccc(N2C(=S)N(c3cnc(C#N)c(C(F)(F)F)c3)C(=O)C23CCC3)cc1F` [apalutamide, 4-(7-(6-Cyano-5-(trifluoromethyl)pyridin-3-yl)-8-oxo-6-thioxo-5,7-diazaspiro(3.4)octan-5-yl)-2-fluoro-N-methylbenzamide], the “solubility in absolute ethanol” value was “sparingly soluble”. Besides, the solubility in water result in data set [1] is reported as “practically insoluble”. Further, the permeability result in data set [2] is “high”.
